Values quoted from earlier work as cited in patent US20060135482A1, “Use of fosinopril to reduce cardiovascular events in disalysis patients” (priority 2002, published 2006).
Where two headings read alike, the source gives them in different places.

Legend:
[1] = patients Clcr<30 ml/min
[2] = normal liver and kidney function; hepatic clearance increases if renal function impaired
[3] = varying degrees of renal insufficiency incl. severe (Clcr<10 ml/min); relative to normal renal function
[4] = blood dialysis or peritoneal dialysis patients with terminal renal insufficiency
[5] = 10 days; renal insufficiency patients

In the case of `CCOC(=O)[C@H](CCc1ccccc1)N[C@@H](C)C(=O)N1CCC[C@H]1C(=O)O` [enalapril], the “AUCd10/AUCd1 (accumulation ratio, area under the curve day 10/day 1)” value ([1]; enalapril 2.5 mg/day for 10 days, p=0.02 versus fosinopril) is listed as 1.96.
In the case of `CCC(=O)O[C@@H](O[P@](=O)(CCCCc1ccccc1)CC(=O)N1C[C@H](C2CCCCC2)C[C@H]1C(=O)O)C(C)C` [fosinopril, (2S,4S)-4-cyclohexyl-1-[2-[(R)-[[(S)-2-methyl-1-(propanoyl-oxy)propyl]oxy](4-phenylbutyl)phosphinoyl]acetyl]pyrrolidine-2-carboxylic acid], the Elimination route [2] is listed as “eliminated in equal parts via the liver and the kidneys”, the “Total clearance of the medicament” value [3] is listed as “about half of that observed in an individual with normal renal function” and the Pharmacokinetic parameters [4] is listed as “remain comparable with those observed in patients with mild, moderate or severe renal insufficiency”. For the same compound, the “Accumulation on repeated administration” value [5] was “accumulates less than enalapril or lisinopril”, the “AUCd10/AUCd1 (accumulation ratio, area under the curve day 10/day 1)” value ([1]; fosinopril 10 mg/day for 10 days, comparison versus enalapril, p=0.02) was 1.41 and the “AUCd10/AUCd1 (accumulation ratio, area under the curve day 10/day 1)” value ([1]; fosinopril 10 mg/day for 10 days, comparison versus lisinopril, p<0.001) was 1.3.
For `NCCCC[C@H](N[C@@H](CCc1ccccc1)C(=O)O)C(=O)N1CCC[C@H]1C(=O)O` [lisinopril], the “AUCd10/AUCd1 (accumulation ratio, area under the curve day 10/day 1)” value ([1]; lisinopril 5 mg/day for 10 days, p<0.001 versus fosinopril) is given as 2.57.
